Results as given in patent publication US9763908B2, “Composition containing monoacetyldiglyceride compound as active ingredient for preventing or treating atopic dermatitis” (ENZYCHEM LIFESCIENCES CORPORATION, priority 2013, dated 2017).

What was measured:
[1] = tested on: IgE; assay: IgE level in serum (ELISA) of mice with DNCB-induced atopic dermatitis after oral EC-18; assay type: in vivo, mouse
Procedure: (§1) DNCB (1-Chloro-2,4-dinitrobenzene, Sigma Aldrich) was diluted to 0.2% by the solvent in which olive oil and acetone were mixed in a ratio of 1:4. Diluted DNCB was applied onto back of each 7-week-old Balb/c mouse whose hairs on back were removed. During the first week application was made seven times continuously, and from the second week, application was made every two days to induce atopy.
Using the serum separated from the mouse blood, was measured the expression levels of IgE in the ELISA method as shown in Experimental Example 1. In IgE ELISA for the mouse, IgE capture antibody (BD bioscience) was diluted with 1×PBS to 2 μg/ml, dispensed to each of 96-well plate (Thermo) by 200 μl, coated for 12 hours, washed using a wash buffer in which 0.05% tween 20 was diluted in 1×PBS. After washing three times, 1% BSA was dispensed to each well by 200 μl and blocking buffer was placed for 1 hour at room temperature (RT) conditions, and then final washing was performed._Thereafter, the serum obtained from the mice was dispensed to each well by 100 μl, and the wells were placed for reaction at room temperature for 1 hours after dispensing, and unreacted IgE is washed under the same conditions. […] When the color development is completed, the stop solution (2N H2SO4+DW) was dispensed by 50 μl, and the amount of color development at 450 nm wavelength was measured. […]

[2] = tested on: atopic symptoms in patients; assay: Observation of atopic symptom alleviation in patients with atopic; assay type: in vivo, human; settings: 500 mg/day; 2 weeks (severe symptoms) or 2 days (mild skin rash); FIGS. 7 and 8
Procedure: To patients with severe atopic symptoms, the EC-18 was administrated every day at a dose of 500 mg/day for 2 weeks and atopic symptoms change which was taken were shown in FIG. 7. To a patient having a mild skin rash, the EC-18 was administrated every day at a dose of 500 mg/day for 2 days and atopic symptoms change which was taken were shown in FIG. 8.

[3] = tested on: sepsis animal model; settings: cecal-ligation-puncture sepsis model; stated as known; cited from earlier work
[4] = tested on: IFN-γ; assay: IFN-γ from ConA-activated lymphocytes of normal healthy people given EC-18 for four weeks (ELISA); assay type: in vivo, human
Procedure: (§2) EC-18 was administered to the normal healthy people (36 people) four weeks. EC-18 Lymphocytes separated from the blood before administration and after administration were incubated with ConA (concanavalin A). In order to measure the cytokine (IFN-γ and IL-4) which is separated from the lymphocyte (T cell) activated by Con A, culture medium was incubated for 42 hours, and were stored frozen. Purified antibody (capture antibody) of cytokine to be measured was dispensed to well (Nunc-immuno module, polysorp) by 0.2 μg/well, and left overnight at 4° C. to coat antigen. After well washing, blocking buffer (1% bovine serum albumin) treatment was performed for about 1 hour to inhibit the nonspecific binding. After washing the well, a cell culture solution was placed into each well and the antibody was combined with coating antigen for 2 hours. […] After approximately 10-30 minutes, stop solution was added into the well and absorbance at 450-570 nm was measured with Automatic Microplate reader (Molecular Devices, CA, USA). In the same manner, absorbance according to cytokine solution concentration was measured to plot standard curve, and the amount of cytokine contained in the sample was calculated by substituting the absorbance of the sample group. The change amount of cytokine calculated in this manner and significance (P<0.05) were shown in flowing Table 1 and FIGS. 5-6.

[5] = tested on: DNCB-induced atopic dermatitis in Balb/c mouse; assay: Visual inspection of the degree of atopic disease in the DNCB-induced mouse model; assay type: in vivo; settings: score 0 to 12
Procedure: as §1
Atopic disease models commonly used in the laboratory is a technique that induces contact Hypersensitivity (CHS) by sensitization to DNCB (1-Chloro-2,4-dinitro-benzene). This technique is a technique of inducing atopic by diluting DNCB with a solvent in which acetone and olive oil are mixed in a ratio of 4:1 to be 0.2%, and then smearing the diluted on the skin, and is for the experiment for adjusting and maintaining the expression time so that artificially severe atopy-like appearance appears could be observed two weeks after the smearing. The degree of atopic disease was evaluated by dividing the state of erythema/emorrhage, scarring/dryness, edema), excoriation/erosion which are induced on the skin, respectively into three steps (0=null, 1=mild, 2=moderate, 3=severe) and then assigning the score up to 12 from zero. It was induced in the experimental group and the control group that the time when severe atopic status ((visual inspection index of 10) is reached was two weeks after the smearing of DNCB. Further, in order to maintain this condition, after two weeks, DNCB smearing was performed every two days.
FIG. 4 is a photograph showing the degree of atopic disease for 3 weeks in mice of the EC-18 administration group (test group) and the mice of olive oil administration group (control group). […] In contrast, in the test group the administration of EC-18, visual inspection index was changed to 1 point after one week, 8 points after two weeks and 3 points after three weeks.

[6] = GLP toxicity test; stated as known; cited from earlier work
[7] = tested on: IL-4; assay: IL-4 from ConA-activated lymphocytes of normal healthy people given EC-18 for four weeks (ELISA); assay type: in vivo, human
Procedure: as §2

[8] = tested on: IL-4; assay: IL-4 level in serum (ELISA) of mice with DNCB-induced atopic dermatitis after oral EC-18; assay type: in vivo, mouse
Procedure: as §1
A mixture of EC-18 and olive oil was orally administrated to the mouse 7 times during the first week by 100 μl each time in dose of 2 mq/rat, and after then, for 11 times, was administered orally by 100 μl each time in dose of 1 mg/rat, that is the mixture was orally administrated totally 18 times. For the measurement of IL-4, blood was collected from veins under the eyes of mice treated, through ocular blood (Eye bleeding) method. […] After collecting the blood of about 350 μl in the EP tube, the blood was centrifuged to separate only serum and IL-4 present in the serum was analyzed by ELISA (enzyme-linked immunosorbent assay) method. […] When the color development is completed, the stop solution (2N H2SO4+DW) was dispensed by 100 μl, and the amount of color development at 450 nm wavelength was measured at ELISA Reader. […]

[9] = DNCB-induced atopic dermatitis model animals

For CCCCC/C=C\C/C=C\CCCCCCCC(=O)OC(COC(C)=O)COC(=O)CCCCCCCCCCCCCCC (centres unmarked) [EC-18, 1-palmitoyl-2-linoleoyl-3-acetylglycerol], which “IgE level compared to the untreated group (olive oil treatment group), in words” value [1, 9] is on record?
Its value is “significantly decreased”.

What about the “reduction of IgE level” value ([1]; serum, two weeks vs one week after administration, oral EC-18, olive oil control approximately 22%) of the same compound?
The value was “about 50%”.

What about the atopic symptoms change [2] of the same compound?
The atopic symptoms change was “the atopic symptoms are relaxed”.

What about the “survivability ratio of animals” value [3] of the same compound?
Its value is “increases survivability ratio of animals”.

What about the “IFN-γ after EC-18 administration” value ([4]; N = 36, four weeks of administration, before administration 686.4 ± 162.2, P 0.473) of the same compound?
The value was 611.9 ± 209.7 pg/mL.

What about the “expression level of Th1 cytokine (IFN-γ), in words” value ([4]; normal subjects, 4 weeks, FIG. 6) of the same compound?
The value was “the change did not occur uniformly”.

And the visual inspection index ([5]; after one week, olive oil control 3 points)?
The visual inspection index was 1 point.

What about the visual inspection index ([5]; after three weeks, olive oil control 6 points) of the same compound?
The visual inspection index was 3 points.

And the visual inspection index ([5]; after two weeks, olive oil control 10 points)?
Its visual inspection index is 8 points.

And the toxicity [6]?
The toxicity was “no-toxicity”.

What about the “IL-4 after EC-18 administration” value ([7]; N = 36, four weeks of administration, before administration 246.6 ± 186.9, P <0.001) of the same compound?
Its value is 96.1 ± 64.2 pg/mL.

What about the “expression level of Th2 cytokine (IL-4), in words” value ([7]; normal subjects, 4 weeks, FIG. 5) of the same compound?
The value was “reduced the expression levels of Th2 cytokine (IL-4)”.

What about the “IL-4 level compared to the untreated group (olive oil treatment group), in words” value [8, 9] of the same compound?
Its value is “significantly decreased”.

And the “reduction of IL-4 level” value ([8]; serum, two weeks vs one week after administration, oral EC-18 in olive oil, olive oil control approximately 50%)?
The value was 80%.
